How the values were obtained:
p53 = p53 mRNA (Northern) and p53 protein (Western) expression in siRNA-expressing HepG2 cells; assay type: cell-based, human
Protocol: Western immunoblotting was performed according to Huez, I. et al. Mol. Endocrinol. 15 2197-2210 (2001) or Masuda, K., et al. PLoS Med. 5, e94 (2008). As a primary antibody, anti p53 antibody (“DO-1” or “FL-393”, Santa Cruz Biotechnology, Inc.), anti […] (“clone AC-15”, Sigma Chemical Co.), anti HA (“Y-11”, Santa Cruz Biotechnology Inc.), and anti L-VEGF (polyclonal anti L-VEGF antibody) mentioned in the Huez, I. et al. (2001) were used.
Total RNAs were extracted according to a guanidine thiocyanate method. Labeled cDNAs were produced using the following antisense primers, a klenow fragment (New England BioLabs, Inc., Inc.), and [α^−32P]dCTP, with the following cDNAs being templates. Thus obtained labeled cDNAs were used as probes for the Northern blotting.
Each type of the vectors was transfected into HepG2 cells for 18 hours in the same manner as in the above-described item (1). Then, the cells were treated in the presence of 5-FU (30 μmol/L) (+) or the absence of 5-FU (−). With respect to the cells treated for 8 hours, the expression level of p53 mRNA was analyzed by the Northern blotting. With respect to the cells treated for 12 hours, the expression level of p53 protein was analyzed by the Western immunoblotting. Analysis of protein also was performed with respect to β-actin protein that is an endogenous control (hereinafter, the same applies). […] In FIG. 1C, the first row from the top indicates expression of p53 mRNA, the second row indicates expression of gapdh mRNA, the third row indicates expression of p53 protein, and the fourth row indicates expression of 6-actin protein. Further, in FIG. 1C, “−” indicates the treatment in the absence of 5-FU and “+” indicates the treatment in the presence of 5-FU.

[1] = tested on: noxa mRNA, puma mRNA, and p21 mRNA; test: expression of mRNAs induced in p53 pathways in HepG2 cells (Northern); assay type: cell-based, human; settings: HepG2, 5-FU 30 μmol/L, 16 hours
Protocol: In the same manner, HepG2 cells transfected with each type of the vectors were treated for 16 hours in the presence of 5-FU (30 μmol/L) (+) or the absence of 5-FU (−). With respect to the treated cells, expression of noxa mRNA, puma mRNA, and p21 mRNA induced in p53 pathways was analyzed by the Northern blotting. […] In FIG. 1D, the first row from the top indicates expression of noxa mRNA, the second row indicates expression of puma mRNA, the third row indicates expression of p21 mRNA, and the fourth row indicates expression of gapdh mRNA. Definitions of the lanes in FIG. 1D are the same as those of FIG. 1C.

HCT116 cell strain = test: tumor volume of si-vegf #1 HCT116 cell strain xenografted to nude mice; assay type: in vivo; settings: si-vegf #1 cells vs si-Control cells, subcutaneous, n=5
Source text: With regard to cells expressing siRNA against vegf, the effect thereof on the tumorigenicity in vivo was examined. Vegf siRNA #1 vectors expressing the above-described siRNA #1 were transfected into a HCT116 cell strain (wild-type p53) derived from human large bowel cancer, and the transfected cells were selected with an antibiotic blasticidin. The thus-obtained cell clone hereinafter is referred to as a si-vegf #1 cell strain. As a control, pcDNA6.2-GW/EmGFP-miR vectors (Invitrogen) to which a double-stranded oligonucleotide with a sequence (SEQ ID NO. 46: 5′-[…]-3′) having no homology to known vertebrate genes had been inserted were used (control siRNA vectors) as in the above. The […] cell strain was transfected with these control siRNA vectors in the same manner as in the above, and the transfected cells were selected with the antibiotic. The thus-obtained cell clone hereinafter is referred to as a si-Control cell strain. Then, the si-vegf #1 cell strain and the si-Control cell strain respectively were xenografted subcutaneously to femoral regions of nude mice, and the volume of the formed tumor was measured after the predetermined time (each n=5) in the same manner as in Example C2.

parent cells HCT116 = test: apoptosis (TUNEL) in parental HCT116 cells with vegf siRNA and 5-FU; assay type: cell-based, human; settings: parent cells HCT116, siRNA expressed and 80 mmol/L of 5-FU, 60 hours
Protocol: (§1) Apoptotic cells were evaluated by a TUNEL staining method using in situ Cell Death Detection kit (Roche Diagnostic). […] The counting was performed with respect to at least 300 cells in one measurement.
(§2) Various types of cells were treated with 5-FU, which is an anticancer agent inducing apoptosis in a p53-dependent manner, and the sensitivity to apoptosis was analyzed. The vegf siRNA#1 vectors expressing siRNA#1, the vegf siRNA #2 vectors expressing siRNA #2, and the control siRNA vectors described above respectively were transfected into HCT 116 (parent cells) and p53-deleted cells HCT116. Then, the cells after 18 hours from the transfection was treated for 60 hours in the presence of […] of 5-FU (+) or in the absence of 5-FU (−). The proportion (%) of apoptosis positive cells in the thus-treated cells was calculated based on “Apoptotic evaluation 2” above (means±SD, n=4).

p53-deleted cells HCT116 = test: apoptosis (TUNEL) in p53-deleted HCT116 cells with vegf siRNA and 5-FU; assay type: cell-based, human; settings: p53-deleted cells HCT116, 5-FU treated, 60 hours
Protocol: as §1, §2

[2] = HepG2, absence of 5-FU, vs control cells
[3] = HepG2, presence of 5-FU (30 μmol/L), mRNA 8 hours, protein 12 hours

## siRNA #1: siRNA against vegf mRNA, SEQ ID NO 3/4, antisense complementary to bases 1062-1082 in SEQ ID NO. 1; expressed from pcDNA6.2-GW/EmGFP-miR vector (sense GCAUUGGACUUGCCUUGCUNN; antisense AGCAAGGCAAGGCUCCAAUGCNN)
p53; [2]
  expression of p53 mRNA and p53 protein: increased
p53; [3]
  expression of p53 mRNA and p53 protein: increased markedly
[1]
  expression induction of noxa mRNA, puma mRNA, and p21 mRNA: enhanced markedly
HCT116 cell strain
  tumor formation and tumor growth: significant suppression
Parent cells HCT116
  proportion of apoptosis: increased markedly
p53-deleted cells HCT116
  increase in proportion of apoptosis on siRNA expression: little increase

## siRNA #2: siRNA against vegf mRNA, SEQ ID NO 5/6, antisense complementary to bases 1067-1087 in SEQ ID NO. 1; vector-expressed (sense GGAGCCUUGUUGCUGCUCUNN; antisense AGAGCAGCAAGGCAAGGCUCCNN)
p53; [2]
  expression of p53 mRNA and p53 protein: increased
p53; [3]
  expression of p53 mRNA and p53 protein: increased markedly
[1]
  expression induction of noxa mRNA, puma mRNA, and p21 mRNA: enhanced markedly
Parent cells HCT116
  proportion of apoptosis: increased markedly
p53-deleted cells HCT116
  increase in proportion of apoptosis on siRNA expression: little increase

From US20100197765A1, “METHOD FOR PROMOTING THE EXPRESSION OF P53, AND P53 EXPRESSION PROMOTER FOR USE IN THE METHOD” (THE UNIVERSITY OF TOKUSHIMA, priority 2007, published 2010)
